The target in one test is T1, full-length human ARH (Homo sapiens, UniProt Q5SW96).
T1 construct: The full-length human ARH gene was cloned into the pETNKI-6xhis-3C-LIC vector; made in house; host or cells: E. coli BL21(DE3)
T1 sequence (Q5SW96 1-308): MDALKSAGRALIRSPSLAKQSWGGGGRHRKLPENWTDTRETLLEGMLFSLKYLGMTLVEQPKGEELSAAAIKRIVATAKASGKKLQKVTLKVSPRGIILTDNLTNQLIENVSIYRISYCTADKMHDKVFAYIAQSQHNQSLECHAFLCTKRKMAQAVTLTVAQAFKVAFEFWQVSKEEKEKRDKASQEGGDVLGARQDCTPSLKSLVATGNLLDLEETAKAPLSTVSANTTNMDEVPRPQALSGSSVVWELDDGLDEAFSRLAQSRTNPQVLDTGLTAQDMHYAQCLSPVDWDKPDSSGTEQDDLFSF
Nature of the test: Microscale thermophoresis (MST), ARH. Type of test: binding. The text has this: (§1) Fig. 2. Adaptor protein binding to integrin β subunits. (A) Colocalization of integrin chimeras fused to the promiscuous biotin ligase BirA* (green in merge) with vinculin (red; left panels) or clathrin (red; right panels) in PA-JEB/β4 keratinocytes. Actin is shown in blue. Nuclei are stained with DAPI (cyan). Scale bars: 20 μm. (B) Representative western blots of BioID assays performed using the integrin chimeras shown in A. Quantifications of ARH, Numb and talin signal intensities normalized to streptavidin-HRP levels are shown (n=3; bars show mean±s.d.). (C) Representative western blots of pulldown assays (from two repeats) using synthetic integrin β cytoplasmic domains in RAC-11P cell lysates.
The full-length human ARH gene was cloned into the pETNKI-6xhis-3C-LIC vector ([Luna-Vargas et al., 2011]) and 6xhis–ARH protein was produced in Bl21(DE3) E. coli cells. Cells were grown at 37°C until an optical density at 600 nm (OD600) of 0.6 was reached. Temperature was reduced to 30°C and protein was expressed upon induction with 0.4 mM IPTG for 3.5 h. Cells were harvested and resuspended in lysis buffer (20 mM HEPES, pH 7.5, 200 mM NaCl, 1 mM TCEP and 5 μg ml^−1 DNase). After sonication, cell debris and insoluble proteins were removed by centrifugation (21,000 g for 30 min). 6xhis–ARH was purified from the soluble fraction using nickel Sepharose beads and eluted in 20 mM HEPES, pH 7.5, 200 mM NaCl, 1 mM TCEP and 250 mM imidazole. Fractions containing 6xhi–ARH were further purified on a SEC650 size exclusion column (Bio-Rad), equilibrated with 20 mM HEPES, pH 7.5, 100 mM NaCl and 1 mM TCEP.
All MST measurements were performed on a Monolith NT.115 red-blue (Nanotemper, Munich, Germany) using premium-coated capillaries to reduce non-specific interaction of the proteins with the glass surface. Both interaction partners (ligand and receptor) were transferred into MST buffer (20 mM Tris-HCl pH 7.5, 200 mM sodium chloride, 1 mM TCEP and 0.05% Tween-20) to avoid artifacts derived from buffer mismatches. […] Data was analyzed using the MO Affinity Analysis Software (Nanotemper).
(In general: In MST a laser heats a spot of the sample, and binding alters the fluorescence response.)

Another test concerns the target T2, Numb-PTB (20-175) (Homo sapiens, UniProt P49757).
T2 construct: A pETNKI-6xhis-3C-Numb-PTB (20-175) construct was expressed in Rosetta2 (DE3) cells; 6xHis-3C (N, cleaved yes); made in house; host or cells: E. coli Rosetta2 (DE3)
T2 sequence (P49757 20-175): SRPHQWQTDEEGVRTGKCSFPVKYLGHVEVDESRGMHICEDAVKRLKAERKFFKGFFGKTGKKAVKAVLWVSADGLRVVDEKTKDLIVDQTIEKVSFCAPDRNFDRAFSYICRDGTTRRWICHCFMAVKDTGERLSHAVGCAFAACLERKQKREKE
Nature of the test: Microscale thermophoresis (MST), Numb. Type of test: binding.
Source text: as §1
A pETNKI-6xhis-3C-Numb-PTB (20-175) construct was expressed in Rosetta2 (DE3) cells for 18 h at 20°C. Cells were lysed (25 mM Tris-HCl pH 8.0, 10 mM imidazole, 200 mM NaCl, 1 mM TCEP, 5 μg/ml DNase) and sonicated, after which insoluble proteins and cell debris were removed by centrifugation (21,000 g for 30 min at 4°C). Soluble lysate was applied to a nickel Sepharose column and beads were washed with wash buffer (lysis buffer without DNase) before protein was eluted in wash buffer supplemented with 250 mM imidazole. The 6xhis tag was cleaved off by his-3C protease during dialysis against 25 mM Tris-HCl pH 8.0, 100 mM NaCl, 1 mM TCEP, 16 h at 4°C. Elution fractions were pooled, diluted with six volumes of 20 mM HEPES pH 7.5, 1 mM TCEP and applied to a 1 ml Resource S cation-exchange column (Cytiva). Protein was eluted in a NaCl gradient (50–700 mM) in 25 mM HEPES (pH 7.5). 6xhis-Numb-PTB was concentrated and further purified by size-exclusion chromatography (SEC70 column, Bio-Rad) in 25 mM Tris-HCl pH 8.0, 200 mM NaCl and 1 mM TCEP.
All MST measurements were performed on a Monolith NT.115 red-blue (Nanotemper, Munich, Germany) using premium-coated capillaries to reduce non-specific interaction of the proteins with the glass surface. […] Data was analyzed using the MO Affinity Analysis Software (Nanotemper).

Test [1] addresses T3, talin-1 head domain (THD1) (Homo sapiens, UniProt Q9Y490).
T3 construct: pCoofy17-THD1 (1-405) constructs were transformed into Rosetta2(DE3) cells; His-SUMO (N, cleaved yes); made in house; host or cells: E. coli Rosetta2(DE3)
Nature of the test: Microscale thermophoresis (MST), talin-1 head domain. It counts as binding. The settings on record: Atto488-labeled β5 cytoplasmic tail 50–200 nM, 20 mM Tris-HCl pH 7.5, 200 mM NaCl, 1 mM TCEP, 0.05% Tween-20, mean±s.d., n≥5.
Source text: as §1, with “lysates. […]” for “lysates.”
pCoofy17-THD1 (1-405) constructs were transformed into Rosetta2(DE3) cells and his-SUMO-THD1 proteins were expressed for 16 h at 20°C after induction with 0.4 mm IPTG. Cells were harvested and resuspended in 25 mM Tris-HCl pH 8.0, 10 mM imidazole, 200 mM NaCl, 1 mM TCEP and 5 μg ml^−1 DNase, and lysed by sonication. […]
All MST measurements were performed on a Monolith NT.115 red-blue (Nanotemper, Munich, Germany) using premium-coated capillaries to reduce non-specific interaction of the proteins with the glass surface. […] Data was analyzed using the MO Affinity Analysis Software (Nanotemper). […]

The test system of the next test is Numb. As to the kind of experiment: Peptide pulldown, Numb. The settings on record: desthiobiotin tail peptide on streptavidin beads, RAC-11P lysate, 4°C, 4 h; western blot; two repeats. Type of test: binding. The procedure:
(§2) Peptide pulldowns were carried out as previously described ([Böttcher et al., 2012]) with the mouse β1 wild-type cytoplasmic tail peptide ([…]-OH) and a scrambled peptide ([…]-OH), mouse β3 wild-type tail peptide ([…]-OH), mouse β5 wild-type tail peptide ([…]-OH), β5 Δ8aa tail peptide ([…]-OH) and scrambled peptide […].
(§3) The tail peptides were synthesized de novo with a desthiobiotin on the N-terminus, coupled to Dynabeads MyOne streptavidin C1 (10 mgml^−1, Invitrogen) and incubated with RAC-11P cell lysates (prepared with M-PER reagent, Thermo Fisher Scientific) at 4°C with rotation for 4 h. After three washes with wash buffer (M-PER diluted 1:1 with PBS), bound proteins were eluted in 2× Laemmli buffer at 95°C for 5 min and separated on an 8% SDS-PAGE gel.
On the technique in general: In western blotting, separated proteins are transferred to a membrane and probed.

In another test the test system is SNX17. Nature of the test: Peptide pulldown, SNX17. As to conditions: desthiobiotin tail peptide on streptavidin beads, RAC-11P lysate, 4°C, 4 h; western blot; two repeats. Type of test: binding. The method, then:
as §2, §3

Test [2] relates to cytoskeletal or clathrin adaptor proteins. Nature of the test: Peptide pulldown, cytoskeletal or clathrin adaptor proteins. As to conditions: desthiobiotin tail peptide on streptavidin beads, RAC-11P lysate, 4°C, 4 h; western blot; two repeats. Type of test: binding. The method, then: as §2, §3
For a further test, the system named is ARH. Nature of the test: Peptide pulldown, ARH. Type of test: binding. As to conditions: desthiobiotin tail peptide on streptavidin beads, RAC-11P lysate, 4°C, 4 h; western blot; two repeats. The procedure: as §2, §3
Test [3] deals with Atto488-labeled integrin β5 cytoplasmic tail. Nature of the test: MST; 50–200 nM Atto488-labeled integrin-β cytoplasmic tail as ligand; 20 mM Tris-HCl pH 7.5, 200 mM sodium chloride, 1 mM TCEP, 0.05% Tween-20; Monolith NT.115.
The mark [4] stands for this setting: MST, Atto488-labeled β5 cytoplasmic tail 50–200 nM, 20 mM Tris-HCl pH 7.5, 200 mM NaCl, 1 mM TCEP, 0.05% Tween-20, mean±s.d., n≥5.
Setting [5] is: concentration range tested up to 75 µM for β3.

Entries after “also recorded” stand apart in the source; their conditions may differ. Ends that are not written are not given here.

T3 sequence (Q9Y490 1-405): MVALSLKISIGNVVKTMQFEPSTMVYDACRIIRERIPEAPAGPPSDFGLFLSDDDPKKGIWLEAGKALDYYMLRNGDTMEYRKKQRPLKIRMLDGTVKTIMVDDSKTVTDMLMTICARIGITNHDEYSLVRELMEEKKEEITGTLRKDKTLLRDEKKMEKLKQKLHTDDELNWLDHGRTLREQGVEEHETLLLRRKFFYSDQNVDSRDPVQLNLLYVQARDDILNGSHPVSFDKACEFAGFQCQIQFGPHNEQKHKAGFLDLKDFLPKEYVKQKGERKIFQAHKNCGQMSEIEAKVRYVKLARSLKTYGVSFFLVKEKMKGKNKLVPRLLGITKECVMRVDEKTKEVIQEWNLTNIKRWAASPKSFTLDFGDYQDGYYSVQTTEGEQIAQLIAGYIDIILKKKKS

“DRREFAKFQSERSRARYEMASNPLYRKPISTHTVDFAFNKFNKSYNGSVD [β5]”: the Kd on full-length human ARH (setting [4]) was 5.6 ± 1.4 µM; at Numb-PTB (20-175) (setting [4]), 28.5 ± 7.7 µM; in test [1], 41.7 ± 9.5 µM.
Regarding “DRREFAKFQSERSRARYEMASNPLYRKPISTVVNKSYNGSVD-OH [β5 Δ8 aa, β5 tail peptide carrying a deletion of 8 amino acids between the NPxY and NxxY motifs]”, the “interaction with Numb in pulldown” value with Numb is “binds considerably more”. The “interaction with SNX17 in pulldown” value with SNX17 was “abrogated”. Besides, the “binding of cytoskeletal or clathrin adaptor proteins in pulldown” value in test [2] was “prevented neither the clustering of β5 in FCLs ([Zuidema et al., 2018]) nor the binding of cytoskeletal or clathrin adaptor proteins to the β5 tail”.
For the molecule “EYEFEPDKVDTGAKGTKMAKNEKKFRNYTVHNIWESRKVAP-OH [β1 scrambled peptide, scrambled β1 tail peptide, control, reference compound]”, the “interaction with ARH in pulldown” value in the test on ARH is on record as “hardly”. For the same molecule, the “interaction with Numb in pulldown” value with Numb was “some background binding”.
Consider “HDRKEFAKFEEERARAKWDTANNPLYKEATSTFTNITYRGT-OH [β3, synthetic integrin β3 cytoplasmic tail peptide]”, for which, on full-length human ARH (setting [5]), the “binding to ARH by MST (β3)” value is listed as “no binding; also recorded: unable to detect binding”. The “binding to Numb by MST (β3)” value on Numb-PTB (20-175) (setting [5]) is recorded as “no binding; also recorded: unable to detect binding”. Moreover, in the test on ARH, the “interaction with ARH in pulldown” value is “not β1 and β3, bind to Numb and ARH”. The “interaction with Numb in pulldown” value in the test with Numb is “not β1 and β3, bind to Numb and ARH”. Also, the “interaction with SNX17 in pulldown” value in the test on SNX17 is listed as “interacted strongly”.
Take “talin-1 head domain (THD1) (from UniProt P26039 1-405) (domain or fragment)”: the Kd in test [3] was 41.7 µM.

B1: 6xhis–ARH (natural protein)
chain: T1 sequence (Q5SW96 1-308)
B1 yielded a Kd in test [3] of 5.6 µM.

B2: Numb-PTB (20-175) (domain or fragment)
chain: T2 sequence (P49757 20-175)
Molecule B2 showed a Kd in test [3] of 28.5 µM.

As a reminder, the Kd is the free concentration of one partner at which half of the binding sites on the other are occupied at equilibrium, for simple one-to-one binding. Lower therefore signals a tighter complex.

These data come from publication PMC9234671, “Molecular determinants of αVβ5 localization in flat clathrin lattices – role of αVβ5 in cell adhesion and proliferation” (Journal of Cell Science, 2022).
